Patent US10590132B2, “Selective estrogen receptor down-regulators” (AstraZeneca AB, priority 2017, dated 2020)

Test system: not listed separately
Test: Human plasma protein binding (equilibrium dialysis)
Type: in vitro ADME
Settings: dialysis 18 hours

| Human plasma protein binding (% free) | Compound |
| --- | --- |
| 2.7 % free | C[C@@H]1Cc2c([nH]c3ccccc23)[C@@H](c2c(F)ccc(OCCN(C)CCCF)c2F)N1CC1(F)COC1 [Example 154, N-(2-(2,4-difluoro-3-((1R,3R)-2-((3-fluorooxetan-3-yl)methyl)-3-methyl-2,3,4,9-tetrahydro-1H-pyrido[3,4-b]indol-1-yl)phenoxy)ethyl)-3-fluoro-N-methylpropan-1-amine] |
| 49 % free | Cc1c(OCCN(C)CCCF)ccc(F)c1[C@@H]1c2[nH]c3ccccc3c2C[C@@H](C)N1CCC(=O)O [Example 163, 3-((1R,3R)-1-(6-fluoro-3-(2-((3-fluoropropyl)(methyl)amino)ethoxy)-2-methylphenyl)-3-methyl-1,3,4,9-tetrahydro-2H-pyrido[3,4-b]indol-2-yl)propanoic Acid] |

The remaining lines, values behind:

| Compound | Human plasma protein binding (% free) |
| --- | --- |
| COCc1ccc(OCCNCCCF)cc1[C@@H]1c2[nH]c3ccccc3c2C[C@@H](C)N1CC(F)(F)F [Example 71, 3-fluoro-N-(2-(4-(methoxymethyl)-3-((1R,3R)-3-methyl-2-(2,2,2-trifluoroethyl)-2,3,4,9-tetrahydro-1H-pyrido[3,4-b]indol-1-yl)phenoxy)ethyl)propan-1-amine] | 0.44 % free |
| Cc1c([C@@H]2c3[nH]c4ccccc4c3C[C@@H](C)N2C[C@@H](C)C(=O)O)ccnc1OCCN(C)CCCF [Example 161, (R)-3-((1R,3R)-1-(2-(2-((3-fluoropropyl)(methyl)amino)ethoxy)-3-methylpyridin-4-yl)-3-methyl-1,3,4,9-tetrahydro-2H-pyrido[3,4-b]indol-2-yl)-2-methylpropanoic Acid] | 6.3 % free |
| Cc1c(OCCNCCC(F)F)ccc(F)c1[C@@H]1c2[nH]c3ccc(F)cc3c2C[C@@H](C)N1C[C@@H](C)C(=O)O [Example 162, (R)-3-((1R,3R)-1-(3-(2-((3,3-difluoropropyl)amino)ethoxy)-6-fluoro-2-methylphenyl)-6-fluoro-3-methyl-1,3,4,9-tetrahydro-2H-pyrido[3,4-b]indol-2-yl)-2-methylpropanoic Acid] | 27 % free |

Biological target: Estrogen Receptor (ERα) in MCF-7 cells (Homo sapiens (Human), UniProt P03372)
Test: MCF-7 ER down-regulation assay (immuno-fluorescence)
Type: cell-based
Settings: maximum downregulation in the assay

Estrogen Receptor (ERα) in MCF-7 cells, sequence (P03372 whole entry): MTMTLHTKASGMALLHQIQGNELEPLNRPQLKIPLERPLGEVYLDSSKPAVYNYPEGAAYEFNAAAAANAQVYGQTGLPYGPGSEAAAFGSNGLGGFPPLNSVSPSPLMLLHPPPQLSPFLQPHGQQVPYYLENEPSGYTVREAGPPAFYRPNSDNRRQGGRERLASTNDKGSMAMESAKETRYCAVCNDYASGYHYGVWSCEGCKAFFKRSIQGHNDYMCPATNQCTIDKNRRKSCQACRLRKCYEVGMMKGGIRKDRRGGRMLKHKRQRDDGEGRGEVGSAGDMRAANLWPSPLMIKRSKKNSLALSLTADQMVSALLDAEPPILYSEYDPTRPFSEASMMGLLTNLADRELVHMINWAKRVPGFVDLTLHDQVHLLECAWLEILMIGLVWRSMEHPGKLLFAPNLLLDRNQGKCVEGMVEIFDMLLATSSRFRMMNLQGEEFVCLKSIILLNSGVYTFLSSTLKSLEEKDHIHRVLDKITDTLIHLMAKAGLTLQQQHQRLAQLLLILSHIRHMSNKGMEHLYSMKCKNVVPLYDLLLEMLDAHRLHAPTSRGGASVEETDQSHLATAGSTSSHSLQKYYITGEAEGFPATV

| Compound | % downregulation (in brackets) |
| --- | --- |
| COCc1ccc(OCCNCCCF)cc1[C@@H]1c2[nH]c3ccccc3c2C[C@@H](C)N1CC(F)(F)F [Example 71, 3-fluoro-N-(2-(4-(methoxymethyl)-3-((1R,3R)-3-methyl-2-(2,2,2-trifluoroethyl)-2,3,4,9-tetrahydro-1H-pyrido[3,4-b]indol-1-yl)phenoxy)ethyl)propan-1-amine] | 90% |
